In patent publication US20050107616A1, “Alpha-ketoamide derivatives as cathepsin k inhibitors” (priority 2001, published 2005):

Tests used:
Assay type in all cases: biochemical
[1] = target: human cathepsin L (Homo sapiens, UniProt P07711); experiment: Cathepsin L inhibition assay, fluorogenic substrate Cbz-Phe-Arg-AMC; conditions: Table 2; enzyme from human liver tissue, pH 5.5, 30° C., 5 μM substrate; read-out: hCat L Ki
Method: (§1) All assays for cathepsin K were carried out with human and rat recombinant enzyme. Assays for cathepsins S Et V were also carried out with human recombinant enzyme. Assays for human cathepsins B. H. and L were carried out with enzyme, purchased from Athens Research and Technology, Inc., prepared from human liver tissue. Standard assay conditions for the determination of kinetic constants used a fluorogenic peptide substrate, typically (5S,8S)-13-amino-5-benzyl-13-imino-3-methylene-N-(4methyl-2-oxo-2H-chromen-7-yl)-6-oxo-1-phenyl-2-oxa-4,7,12-triazatridecane-8-carboxamide (Cbz-Phe-Arg-AMC), and were determined in 100 mM sodium acetate at pH 5.5 containing 10 mM dithiothreitol and 120 mM sodium chloride. A stock substrate solution of Cbz-Phe-Arg-AMC was prepared at a concentration of 50 mM in dimethyl sulfoxide. This substrate was diluted into the assay for a final substrate concentration of 10 μM in the rat cathepsin K, human cathepsin K, and human cathepsin B assays; a final substrate concentration of 5 μM in the human cathepsin L assay; and a final substrate concentration of 2 μM in the human cathepsin V assay.
(§2) All assays contained 10% dimethyl sulfoxide. […] All assays were conducted at 30° C. Product fluorescence (excitation at 360 nm; emission at 440 nm, (except cathepsin H which used excitation at 340 nm; emission at 420 nm)) was monitored with a PerSeptive Biosystems Cytofluor II fluorescence plate reader. Product progress curves were generated over 2.3 h monitoring the formation of 7-amino-4-methylcoumarin product (or β-naphthalamide for cathepsin H).
(§3) Potential inhibitors were evaluated using the progress curve method. Assays were carried out in the presence of variable concentrations of test compound. Reactions were initiated by addition of buffered solutions of inhibitor and substrate to enzyme. Data analysis was conducted according to one of two procedures depending on the appearance of the progress curves in the presence of inhibitors. For those compounds whose progress curves were linear, the enzymatic activity (RATE) was plotted against the concentration of test compound, including inhibitor concentration of zero ([I]=0), and the IC50 determined from a fit of equation 1 to the data, RATE=Vmax/(1+([I]/IC50)) (1) where Vmax is the best fit estimate of the maximal enzymatic activity. Ki values were calculated from IC50 values using equation 2 assuming a competitive model. [formula]

[2] = target: T1, rat cathepsin K (Rattus norvegicus, UniProt O35186); experiment: Cathepsin K inhibition assay, fluorogenic substrate Cbz-Phe-Arg-AMC, progress curve method; conditions: Table 2; rat recombinant enzyme, pH 5.5, 30° C., 10 μM substrate; read-out: rCat K Ki
T1 construct: The proform of cathepsin K was converted to mature cathepsin K by brief exposure to pH 4; made in house; host or cells: baculovirus; Trichoplusia ni High Five cells (virus raised in Sf-9)
T1 sequence (O35186 115-329): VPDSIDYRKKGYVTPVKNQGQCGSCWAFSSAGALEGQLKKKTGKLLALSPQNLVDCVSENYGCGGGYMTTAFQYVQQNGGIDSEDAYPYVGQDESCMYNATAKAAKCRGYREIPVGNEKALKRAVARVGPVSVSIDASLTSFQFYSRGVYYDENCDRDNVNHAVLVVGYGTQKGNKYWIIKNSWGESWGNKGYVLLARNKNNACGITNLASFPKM
Method: as §1, §2
Scale-Up and Fermentation: The method of O'Reilly et al. (1994) was used for baculovirus expression with the following details. Two liters of Spodoptera frugiperda (Sf-9) cells (ATCC) were grown in Grace's Supplemented medium (Life Technologies) supplemented with 2 g/L glucose, 10% a fetal bovine serum (HyClone) and 0.10% pluronic F-68 (Life Technologies). Cells were grown in a 6 L shake flask at 150 RPM at 28° C. for 24 h to a density of 10^6 cells/mL, and then infected at a multiplicity of infection (MOI) of 0.1. The cells continued to grow for 72 h post-infection, before the virus was harvested by centrifugation at 1400× g for 30 min. Virus was titered as described (Summers and Smith, 1987).
One and one-half liters of Trichoplusia ni (T. ni) High Five (TM) cells [JRH Biosciences, Woodland, Calif. (adapted to suspension and serum-free medium)] grown in Excell 405 (TM) medium (JRH Biosciences) with 50 ug/mL gentamicin (Life Technologies) were added to a 15 L stirred tank reactor (Quark Enterprises, Inc) at a density of ˜0.5×10^6 cells/mL The cells were grown for 24 h at 28° C., 50 RPM, and 50% dissolved oxygen. Cells were then infected at a density of ˜10^6 cells/mL with an MOI of 1 and grown for 48 h post-infection. Media were separated from cells at a rate of 1 L/min using the Centritech 100 (TM) continuous-flow centrifuge (DuPont) operating at 200× g.
Protein Purification: Media (human and rat) were filtered through a Whatman 3 filter, and then loaded onto a 25 mL Poros HS II (26 mm×47 mm) cation exchange column equilibrated in 25 mM sodium acetate at pH 5.5 (equilibration buffer). The column was washed until the absorbance reached the baseline value, and then the protein was eluted with a linear gradient from 0-2 M sodium chloride in the equilibration buffer. Column fractions were analyzed by SDS-PAGE, N-terminal sequencing, and mass spectrometry. Fractions containing the proform of cathepsin K were pooled and frozen at −80° C. The proform was concentrated in an Amicon Centriprep 10 and fractionated with a Superdex 75 column (26 mm×600 mm, Pharmacia) equilibrated in 400 mM sodium chloride, 25 mM sodium acetate at pH 5.5.
Cathepsin K Activation: The proform of cathepsin K was converted to mature cathepsin K by brief exposure to pH 4 in the presence of 5 mM L-cysteine. […]

[3] = target: human cathepsin B (Homo sapiens, UniProt P07858); experiment: Cathepsin B inhibition assay, fluorogenic substrate Cbz-Phe-Arg-AMC; conditions: Table 2; enzyme from human liver tissue, pH 5.5, 30° C., 10 μM substrate; read-out: hCat B Ki
Method: as §1, §2, §3

[4] = target: human cathepsin H (Homo sapiens, UniProt P09668); experiment: Cathepsin H inhibition assay, substrate L-Arg-β-naphthalamide; conditions: Table 2; enzyme from human liver tissue, pH 5.5, 30° C.; read-out: hCat H Ki
Method: as §1
A stock substrate solution of (2S)-2-amino-5-{[amino(imino)methyl]amino}-N-(2-naphthyl)pentanamide hydrochloride (L-Arg-β-naphthalamide.HCl) was prepared at a concentration of 10 mM in dimethyl sulfoxide. This substrate was diluted into the assay for a final substrate concentration of […] in the cathepsin H assay.
as §2, §3

Sequence of human cathepsin L (P07711 114-288 limits assumed): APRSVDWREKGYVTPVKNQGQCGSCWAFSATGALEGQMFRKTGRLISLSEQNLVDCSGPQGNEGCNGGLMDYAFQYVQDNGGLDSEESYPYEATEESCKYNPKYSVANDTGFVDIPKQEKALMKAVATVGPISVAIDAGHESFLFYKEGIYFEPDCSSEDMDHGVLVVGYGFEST
Sequence of human cathepsin L (P07711 292-333 limits assumed): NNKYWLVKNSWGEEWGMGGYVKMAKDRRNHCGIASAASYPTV
Sequence of human cathepsin H (P09668 116-335 limits assumed, other chains not shown): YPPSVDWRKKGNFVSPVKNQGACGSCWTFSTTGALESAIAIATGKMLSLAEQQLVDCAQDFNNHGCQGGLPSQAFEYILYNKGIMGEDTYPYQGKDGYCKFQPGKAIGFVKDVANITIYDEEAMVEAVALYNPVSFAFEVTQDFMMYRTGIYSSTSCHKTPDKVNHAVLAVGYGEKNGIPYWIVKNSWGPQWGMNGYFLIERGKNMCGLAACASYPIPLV

Row | Ki [1] [nM] | Ki [2] [nM] | Ki [3] [nM] | Ki [4] [nM] | SMILES
1 | 100 to 10000 | 100 to 10000 | 100 to 10000 | – | CCCC[C@H](NC(=O)O[C@H](Cc1nnc(-c2ccc(F)cc2)o1)C(C)(C)C)C(=O)C(=O)Nc1ccnn1C (stereo in doubt) [Example 22, (1R)-1-{[5-(4-fluorophenyl)-1,3,4-oxadiazol-2-yl]methyl}-2,2-dimethylpropyl(1S)-1-[[(1-methyl-1H-pyrazol-5-yl)amino](oxo)acetyl]pentyl carbamate]
2 | 1 to 100 | 0.01 to 1 | 1 to 100 | 100 to 10000 | CCCC[C@H](NC(=O)O[C@H](Cn1ccc(-c2ccc(C(F)(F)F)cc2)n1)C(C)(C)C)C(=O)C(=O)Nc1ccn[nH]1 [Example 1]
3 | 1 to 100 | 0.01 to 1 | 1 to 100 | 100 to 10000 | CCCC[C@H](NC(=O)O[C@H](Cn1cnc(-c2ccc(C(F)(F)F)cc2)c1)C(C)(C)C)C(=O)C(=O)Nc1ccn[nH]1 [Example 7, (1S)-2,2-dimethyl-1-({4-[4-(trifluoromethyl)phenyl]-1H-imidazol-1-yl}methyl)propyl(1S)-1-[oxo(1H-pyrazol-5-ylamino)acetyl]pentylcarbamate]
4 | 100 to 10000 | 1 to 100 | 100 to 10000 | 100 to 10000 | CCCC[C@H](NC(=O)O[C@H](Cn1cnc(-c2ccc(C(F)(F)F)cc2)c1)C(C)(C)C)C(=O)C(=O)Nc1ccnn1C1CCC1 [Example 35, (1S)-2,2-dimethyl-1-({4-[4-(trifluoromethyl)phenyl]-1H-imidazol-1-yl}methyl)propyl(1S)-1-[[(1-cyclobutyl-1H-pyrazol-5-yl)amino](oxo)acetyl]pentylcarbamate]
5 | 0.01 to 1 | 0.01 to 1 | 1 to 100 | 100 to 10000 | CCCC[C@H](NC(=O)O[C@H](Cn1cnc2cc(Cl)c(Cl)cc21)C(C)(C)C)C(=O)C(=O)Nc1ccn[nH]1 [Example 37, (1S)-1-[(5,6-dichloro-1H-benzimidazol-1-yl)methyl]-2,2-dimethylpropyl(1S)-1-[oxo(1H-pyrazol-5-ylamino)acetyl]pentylcarbamate]
6 | 1 to 100 | 1 to 100 | 1 to 100 | 100 to 10000 | CCCC[C@H](NC(=O)O[C@H](c1nnc(-c2ccc(C(F)(F)F)cc2)o1)C(C)(C)C)C(=O)C(=O)Nc1ccn[nH]1 [Example 38, (1S)-2,2-dimethyl-1-{5-[4-(trifluoromethyl)phenyl]-1,3,4-oxadiazol-2-yl}propyl(1S)-1-[oxo(1H-pyrazol-5-ylamino)acetyl]pentylcarbamate]
7 | 1 to 100 | 1 to 100 | 1 to 100 | 100 to 10000 | CCCC[C@H](NC(=O)O[C@H](c1nnc(-c2ccc(C(F)(F)F)cc2)o1)C(C)(C)C)C(=O)C(=O)NN1CCOC1=O [Example 39, (1S)-2,2-dimethyl-1-{5-[4-(trifluoromethyl)phenyl]-1,3,4-oxadiazol-2-yl}propyl(1S)-1-{oxo[(2-oxo-1,3-oxazolidin-3-yl)amino]acetyl}pentylcarbamate]
